The text below walks through data of US6806230B1, “Pyrimidine derivatives and herbicides containing them” (Kumiai Chemical Industry Co., Ltd., priority 1999, dated 2004).

Common to all, as to type: in vivo
The test system of data set [1] is barnyard grass (Eo). Nature of the data set: Test Example 1: herbicidal effects by flooded paddy field treatment. The conditions noted are these: dose 100 g active ingredient per 10 ares, examined on the 21st day after treatment, standards of Table 44. Further details: herbicidal effects, Eo (barnyard grass):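 0-5 growth inhibition grade; 5 = over 90%; 4 = 70-90%; 3 = 50-70%; 2 = 30-50%; 1 = 10-30%; 0 = under 10%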. A digest of the protocol: (§1)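 Flooded paddy pre-emergence test: sowing into puddled soil under 3 cm water, then dropwise water-surface treatment the following day with diluted wettable powder at 100 g active ingredient per 10 ares. Greenhouse cultivation followed, and weeds were rated against a standard scale at 21 days.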

Data set [2] deals with monochoria (Mo). The data set is described as above. Further details: herbicidal effects, Mo (monochoria):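 0-5 growth inhibition grade; 5 = over 90%; 4 = 70-90%; 3 = 50-70%; 2 = 30-50%; 1 = 10-30%; 0 = under 10%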. The following applies: dose 100 g active ingredient per 10 ares, examined on the 21st day after treatment, standards of Table 44. A digest of the protocol:
as §1

A further data set deals with barnyard grass (Ec). The experiment in a line: Test Example 2: herbicidal effects by upland soil treatment. The following applies: dose 100 g active ingredient per 10 ares, examined on the 21st day after treatment. The arrangement: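 0-5 growth inhibition grade; 5 = over 90%; 4 = 70-90%; 3 = 50-70%; 2 = 30-50%; 1 = 10-30%; 0 = under 10%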. The method in brief: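 Pre-emergence test: barnyard grass and green foxtail sown in upland soil, then soil surface sprayed with wettable-powder formulation at 100 g active ingredient per 10 ares (100 l per 10 ares). Grown in greenhouse; herbicidal effect scored on a rating scale 21 days after treatment.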

Data set [3] deals with barnyard grass (Eo). Nature of the data set: Test Example 4: selectivity for a crop plant by flooded paddy field treatment. The following applies: barnyard grass, dose 25 gai/10a, 21st day after treatment, index per Table 44. The arrangement: scale not given here. The method, then: (§2) In a 100 cm^2 plastic pot, a paddy field soil was filled and paddled. Then, seeds of barnyard grass (Eo) and monochoria (Mo) were sown, and rice (Or) of second leaf stage was transplanted, and water was introduced to a depth of 3 cm. Next day, a wettable powder prepared in accordance with Formulation Example 1 was diluted with water and dropwise applied to the water surface. The dose was 25 g of the active ingredient per 10 ares. Thereafter, cultivation was carried out in a green house, and on the 21st day after the treatment, the herbicidal effects were examined in accordance with the standards of Table 44.

Data set [4] relates to monochoria (Mo). The data set is described as above. The following applies: monochoria, dose 25 gai/10a, 21st day after treatment, index per Table 44. The arrangement: scale not given here. The method, then:
as §2

Another data set concerns rice (Or). The description is as above. Further details: scale not given here. The conditions noted are these: rice transplanted at second leaf stage, dose 25 gai/10a, 21st day after treatment, index per Table 44. The method, then: as §2

Regarding `CN(C(=O)Cc1ccc(Cl)cc1F)C(c1ccccc1)c1cncnc1C(F)(F)F` (racemic) [Compound 1-250], the “herbicidal effects, Eo (barnyard grass)” value in the data set with barnyard grass (Eo) [1] is 5. For the same compound, in the data set on monochoria (Mo) [2], the “herbicidal effects, Mo (monochoria)” value is reported as 5. Besides, the “Ec (herbicidal effects, index)” value in the data set with barnyard grass (Ec) is reported as 4. Also, the “Eo (herbicidal effect index)” value in the data set with barnyard grass (Eo) [3] amounted to 5. Besides, the “Mo (herbicidal effect index)” value in the data set on monochoria (Mo) [4] is given as 5. Moreover, the “Or (herbicidal effect index on crop)” value with rice (Or) is 1.

For the compound `C#CCN(C(=O)Cc1ccc(Cl)s1)C(c1cncnc1CC)C(C)C` (racemic) [2-73], in the data set on barnyard grass (Eo) [1], the “herbicidal effects, Eo (barnyard grass)” value was determined as 5. In addition, the “herbicidal effects, Mo (monochoria)” value in the data set with monochoria (Mo) [2] is on record as 5. Further, the “Ec (herbicidal effects, index)” value with barnyard grass (Ec) was determined as 5. Further, in the data set with barnyard grass (Eo) [3], the “Eo (herbicidal effect index)” value is given as 5. In the data set on monochoria (Mo) [4], the “Mo (herbicidal effect index)” value was determined as 5. Moreover, the “Or (herbicidal effect index on crop)” value in the data set with rice (Or) came to 1.

As to `C#CCN(C(=O)Cc1ccsc1)C(c1cncnc1C(F)(F)F)C(C)C` (racemic) [2-78], in the data set on barnyard grass (Eo) [1], the “herbicidal effects, Eo (barnyard grass)” value was 5. The “herbicidal effects, Mo (monochoria)” value in the data set with monochoria (Mo) [2] is given as 5. For the same compound, in the data set on barnyard grass (Ec), the “Ec (herbicidal effects, index)” value is given as 5. For the same compound, the “Eo (herbicidal effect index)” value in the data set on barnyard grass (Eo) [3] is on record as 5. Besides, in the data set with monochoria (Mo) [4], the “Mo (herbicidal effect index)” value was 5. Besides, in the data set on rice (Or), the “Or (herbicidal effect index on crop)” value came out at 1.

Consider `CC(C)C(c1cncnc1C(F)(F)F)N(C)C(=O)Cc1ccsc1` (racemic) [2-2], for which the “herbicidal effects, Eo (barnyard grass)” value in the data set on barnyard grass (Eo) [1] turned out to be 5. Further, in the data set with monochoria (Mo) [2], the “herbicidal effects, Mo (monochoria)” value came out at 5. Moreover, the “Ec (herbicidal effects, index)” value in the data set on barnyard grass (Ec) came out at 5. In addition, the “Eo (herbicidal effect index)” value in the data set on barnyard grass (Eo) [3] was determined as 5. Also, the “Mo (herbicidal effect index)” value in the data set on monochoria (Mo) [4] is 5. Further, in the data set on rice (Or), the “Or (herbicidal effect index on crop)” value stood at 1.

As for `CC(C)C(c1cncnc1C(F)(F)F)N(C)C(=O)Cc1ccc2ccccc2c1` (racemic) [2-1], the “herbicidal effects, Eo (barnyard grass)” value in the data set with barnyard grass (Eo) [1] stood at 5. In the data set with monochoria (Mo) [2], the “herbicidal effects, Mo (monochoria)” value is on record as 5. The “Ec (herbicidal effects, index)” value with barnyard grass (Ec) is listed as 5. The “Eo (herbicidal effect index)” value in the data set on barnyard grass (Eo) [3] is 5. Moreover, in the data set with monochoria (Mo) [4], the “Mo (herbicidal effect index)” value came out at 5. Moreover, the “Or (herbicidal effect index on crop)” value in the data set on rice (Or) is recorded as 0.

In the case of `CN(C(=O)Cc1cccs1)C(c1ccccc1)c1cncnc1C(F)(F)F` (racemic) [2-19], the “herbicidal effects, Eo (barnyard grass)” value in the data set with barnyard grass (Eo) [1] came to 5. In the data set with monochoria (Mo) [2], the “herbicidal effects, Mo (monochoria)” value was 5. Also, the “Ec (herbicidal effects, index)” value in the data set on barnyard grass (Ec) is given as 5. For the same compound, the “Eo (herbicidal effect index)” value with barnyard grass (Eo) [3] stood at 5. In addition, the “Mo (herbicidal effect index)” value in the data set with monochoria (Mo) [4] came out at 5. In addition, in the data set with rice (Or), the “Or (herbicidal effect index on crop)” value is 1.

For `CC(C)C(c1cncnc1C(F)(F)F)N(C)S(=O)(=O)c1ccc(Cl)cc1` (racemic) [4-1], the “herbicidal effects, Eo (barnyard grass)” value in the data set with barnyard grass (Eo) [1] stood at 5. Moreover, the “herbicidal effects, Mo (monochoria)” value in the data set with monochoria (Mo) [2] is reported as 5. Besides, the “Ec (herbicidal effects, index)” value in the data set with barnyard grass (Ec) came out at 5. In the data set on barnyard grass (Eo) [3], the “Eo (herbicidal effect index)” value was determined as 5. Besides, the “Mo (herbicidal effect index)” value with monochoria (Mo) [4] was 5. Besides, in the data set on rice (Or), the “Or (herbicidal effect index on crop)” value turned out to be 1.

Consider `C#CCN(C(=O)Cc1ccc(C)cc1)C(c1cncnc1C(C)C)C(C)C` (racemic) [1-624], for which the “herbicidal effects, Eo (barnyard grass)” value in the data set on barnyard grass (Eo) [1] was determined as 5. In the data set on monochoria (Mo) [2], the “herbicidal effects, Mo (monochoria)” value was 5. Also, the “Ec (herbicidal effects, index)” value with barnyard grass (Ec) is listed as 5. Also, the “Eo (herbicidal effect index)” value in the data set with barnyard grass (Eo) [3] is listed as 5. For the same compound, the “Mo (herbicidal effect index)” value in the data set with monochoria (Mo) [4] was found to be 5. Further, the “Or (herbicidal effect index on crop)” value in the data set on rice (Or) is recorded as 1.

Take `CCCc1ncncc1C(C(C)C)N(C)C(=O)Cc1ccc(C)cc1` (racemic) [1-448]: the “herbicidal effects, Eo (barnyard grass)” value in the data set with barnyard grass (Eo) [1] is 5. In addition, the “herbicidal effects, Mo (monochoria)” value with monochoria (Mo) [2] was 5. In addition, in the data set on barnyard grass (Ec), the “Ec (herbicidal effects, index)” value was 5. Further, the “Eo (herbicidal effect index)” value in the data set with barnyard grass (Eo) [3] is listed as 5. In addition, the “Mo (herbicidal effect index)” value with monochoria (Mo) [4] came to 5. Further, the “Or (herbicidal effect index on crop)” value in the data set with rice (Or) was 1.

Consider `CN(C(=O)Cc1ccc(Cl)s1)C(c1ccccc1)c1cncnc1C(F)(F)F` (racemic) [2-31], for which, in the data set with barnyard grass (Eo) [1], the “herbicidal effects, Eo (barnyard grass)” value was found to be 5. In addition, the “herbicidal effects, Mo (monochoria)” value in the data set with monochoria (Mo) [2] came out at 5. Moreover, the “Ec (herbicidal effects, index)” value in the data set on barnyard grass (Ec) was determined as 5. The “Eo (herbicidal effect index)” value in the data set on barnyard grass (Eo) [3] was determined as 5. Moreover, the “Mo (herbicidal effect index)” value with monochoria (Mo) [4] turned out to be 5. The “Or (herbicidal effect index on crop)” value in the data set with rice (Or) amounted to 0.
